Measurements published in paper PMC9596378, “Discovery and molecular basis of subtype-selective cyclophilin inhibitors” (Nature Chemical Biology, 2022).
Values joined by “and” are separate entries in the source; they are usually repeats but may differ in a detail not shown here. Equal values may be shown once. Read-outs that look alike come from different tables or passages of the source.

Key:
[1] = target: Cyp40 (Homo sapiens, UniProt Q08752); experiment: Chymotrypsin coupled prolyl-isomerase assay; conditions: for Cyp40 prolyl-isomerase assay raw dose-response value: Fig. 3b source data, replicates
Chain of Cyp40 (Q08752 1-183): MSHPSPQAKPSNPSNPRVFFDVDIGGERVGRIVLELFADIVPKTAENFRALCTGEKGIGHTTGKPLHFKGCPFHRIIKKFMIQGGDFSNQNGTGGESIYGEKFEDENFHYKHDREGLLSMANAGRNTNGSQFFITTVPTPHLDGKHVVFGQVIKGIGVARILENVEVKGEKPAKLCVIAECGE
Outline: (§1)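 Steps: cyclophilin plus compound 5 min at 2–3 °C; α-chymotrypsin added, 5 min more; Suc-AAPF-AMC substrate in LiCl/trifluoroethanol injected and fluorescence followed 330 s. Finals: 5 nM enzyme, 25 µM chymotrypsin, 5 µM substrate, 0.25% DMSO.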

[2] = target: T1, CypE (Homo sapiens, UniProt Q9UNP9); experiment: Chymotrypsin coupled prolyl-isomerase assay; format: biochemical; conditions: for CypE prolyl-isomerase assay raw dose-response value: Fig. 3b source data, replicates
T1 construct: PPIE (UniProtKB Entry Q9UNP9: residues 131–301); host or cells: E. coli BL21(DE3)
T1 sequence (Q9UNP9 131-301): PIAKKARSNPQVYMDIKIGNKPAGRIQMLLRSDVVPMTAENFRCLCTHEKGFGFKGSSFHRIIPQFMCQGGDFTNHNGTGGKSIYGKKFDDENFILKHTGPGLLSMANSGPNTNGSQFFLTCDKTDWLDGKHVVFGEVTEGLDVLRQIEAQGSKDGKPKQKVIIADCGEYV
Outline: as §1

[3] = target: T2, CypH (Homo sapiens, UniProt O43447); experiment: Chymotrypsin coupled prolyl-isomerase assay; format: biochemical; conditions: for CypH prolyl-isomerase assay raw dose-response value: Fig. 3b source data, replicates
T2 construct: PPIH (UniProtKB Entry O43447: residues 1–177); His6 with TEV site (2BT vector leader) (N); made in house; host or cells: E. coli BL21(DE3)
T2 sequence (O43447 whole entry, the tested form may be a part): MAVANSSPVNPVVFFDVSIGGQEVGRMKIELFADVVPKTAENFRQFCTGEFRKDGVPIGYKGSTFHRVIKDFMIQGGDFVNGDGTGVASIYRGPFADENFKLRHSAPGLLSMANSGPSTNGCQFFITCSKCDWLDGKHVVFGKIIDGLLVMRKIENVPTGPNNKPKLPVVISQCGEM
Outline: as §1

[4] = target: T3, CypC (Homo sapiens, UniProt P45877); experiment: Chymotrypsin coupled prolyl-isomerase assay; format: biochemical; conditions: for CypC prolyl-isomerase assay raw dose-response value: Fig. 3b source data, replicates
T3 construct: PPIC (UniProtKB Entry P45877: residues 24–212); host or cells: E. coli BL21(DE3)
T3 sequence (P45877 24-212): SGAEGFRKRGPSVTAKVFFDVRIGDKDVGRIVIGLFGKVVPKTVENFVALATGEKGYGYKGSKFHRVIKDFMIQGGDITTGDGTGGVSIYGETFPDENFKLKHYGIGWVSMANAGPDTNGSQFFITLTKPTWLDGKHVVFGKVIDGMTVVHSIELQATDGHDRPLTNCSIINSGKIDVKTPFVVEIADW
Outline: as §1

[5] = target: T4, CypG (Homo sapiens, UniProt Q13427); experiment: Chymotrypsin coupled prolyl-isomerase assay; format: biochemical; conditions: for CypG prolyl-isomerase assay raw dose-response value: Fig. 3b source data, replicates
T4 construct: PPIG (UniProtKB Entry Q13427: residues 1–179); His6 with thrombin site (pET28a LIC leader) (N); host or cells: E. coli BL21(DE3)
T4 sequence (Q13427 1-179): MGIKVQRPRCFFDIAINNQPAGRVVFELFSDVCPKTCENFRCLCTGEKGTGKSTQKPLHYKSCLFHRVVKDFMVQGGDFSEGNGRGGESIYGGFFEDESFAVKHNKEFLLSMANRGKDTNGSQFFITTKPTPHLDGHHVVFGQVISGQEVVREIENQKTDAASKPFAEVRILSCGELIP
Outline: as §1

[6] = target: T5, CypA (Homo sapiens, UniProt P62937); experiment: Chymotrypsin coupled prolyl-isomerase assay; format: biochemical; conditions: for CypA prolyl-isomerase assay raw dose-response value: Fig. 3b source data, replicates
T5 construct: PPIA (UniProtKB Entry P62937: residues 1–165); made in house; host or cells: E. coli BL21(DE3)
T5 sequence (P62937 whole entry, the tested form may be a part): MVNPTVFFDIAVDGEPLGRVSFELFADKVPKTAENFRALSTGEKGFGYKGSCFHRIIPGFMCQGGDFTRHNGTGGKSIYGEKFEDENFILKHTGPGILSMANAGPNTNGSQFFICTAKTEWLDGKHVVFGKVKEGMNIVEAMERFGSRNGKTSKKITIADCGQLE
Outline: as §1

[7] = target: T6, CypB (Homo sapiens, UniProt P23284); experiment: biochemical; conditions: for CypB prolyl-isomerase assay raw dose-response value: Fig. 3b source data, replicates
T6 construct: PPIB (UniProtKB Entry P23284: residues 34–216); His6 with TEV site (2BT vector leader) (N); made in house; host or cells: E. coli BL21(DE3)
T6 sequence (P23284 34-216): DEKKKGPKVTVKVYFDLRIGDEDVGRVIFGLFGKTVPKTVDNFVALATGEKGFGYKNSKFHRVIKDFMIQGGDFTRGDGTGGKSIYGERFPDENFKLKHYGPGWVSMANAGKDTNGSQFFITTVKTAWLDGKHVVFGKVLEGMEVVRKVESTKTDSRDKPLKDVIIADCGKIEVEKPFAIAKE
Outline: as §1

[8] = target: T7, NKTR (Homo sapiens, UniProt P30414); experiment: Chymotrypsin coupled prolyl-isomerase assay; format: biochemical; conditions: for NKTR prolyl-isomerase assay raw dose-response value: Fig. 3b source data, replicates
T7 construct: NKTR (UniProtKB Entry P30414: residues 7–179); host or cells: E. coli BL21(DE3)
T7 sequence (P30414 7-179): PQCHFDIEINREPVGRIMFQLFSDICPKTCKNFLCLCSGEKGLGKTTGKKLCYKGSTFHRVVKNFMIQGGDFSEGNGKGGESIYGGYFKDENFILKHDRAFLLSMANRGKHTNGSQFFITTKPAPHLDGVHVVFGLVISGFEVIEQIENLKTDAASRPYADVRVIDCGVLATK

NCCOCCNC(=O)[C@@H]1CCNC(=O)/C=C/C(=O)N2CCC[C@](Cc3ccccc3)(C2)C(=O)N[C@@H](Cc2ccc(-c3ccc(CCC(=O)O)cc3)cc2)C(=O)NCc2ccccc2CC(=O)N1 [Compound B23]
Cyp40 prolyl-isomerase assay raw dose-response value ([1]; Dose 0.0201875 µM): 0.0705 and 0.08875 and 0.06706
Cyp40 prolyl-isomerase assay raw dose-response value ([1]; Dose 0.0605624 µM): 0.06428 and 0.07232 and 0.08253
Cyp40 prolyl-isomerase assay raw dose-response value ([1]; Dose 0.181687 µM): 0.08019 and 0.07121 and 0.08682
Cyp40 prolyl-isomerase assay raw dose-response value ([1]; Dose 0.545062 µM): 0.05956 and 0.06358 and 0.0778
Cyp40 prolyl-isomerase assay raw dose-response value ([1]; Dose 1.63519 µM): 0.04659 and 0.04863 and 0.05555
Cyp40 prolyl-isomerase assay raw dose-response value ([1]; Dose 4.90556 µM): 0.02767 and 0.03026 and 0.03081
Cyp40 prolyl-isomerase assay raw dose-response value ([1]; Dose 14.7167 µM): 0.0182 and 0.01915 and 0.02408
Cyp40 prolyl-isomerase assay raw dose-response value ([1]; Dose 44.15 µM): 0.01601 and 0.01375 and 0.01814
IC50 ([1]; Wild-Type Cyclophilin Prolyl Isomerase Inhibition IC50 Values, Cyp40, wild-type Cyp40): 1700 nM
CypE prolyl-isomerase assay raw dose-response value ([2]; Dose 0.00457247 µM): 0.1029 and 0.09388 and 0.1478
CypE prolyl-isomerase assay raw dose-response value ([2]; Dose 0.0137174 µM): 0.07275 and 0.07554 and 0.1142
CypE prolyl-isomerase assay raw dose-response value ([2]; Dose 0.0411523 µM): 0.04814 and 0.04078 and 0.05584
CypE prolyl-isomerase assay raw dose-response value ([2]; Dose 0.123457 µM): 0.02663 and 0.02961 and 0.04183
CypE prolyl-isomerase assay raw dose-response value ([2]; Dose 0.37037 µM): 0.01687 and 0.01785 and 0.01578
CypE prolyl-isomerase assay raw dose-response value ([2]; Dose 1.11111 µM): 0.01294 and 0.01514 and 0.0179
CypE prolyl-isomerase assay raw dose-response value ([2]; Dose 3.33333 µM): 0.01306 and 0.01252 and 0.01422
CypE prolyl-isomerase assay raw dose-response value ([2]; Dose 10 µM): 0.01752 and 0.01195 and 0.01258
IC50 ([2]; wild-type CypE, read-out: Wild-Type Cyclophilin Prolyl Isomerase Inhibition IC50 Values, CypE): 19 nM
CypH prolyl-isomerase assay raw dose-response value ([3]; Dose 0.0201875 µM): 0.05491 and 0.05835 and 0.05541
CypH prolyl-isomerase assay raw dose-response value ([3]; Dose 0.0605624 µM): 0.04538 and 0.05559 and 0.06086
CypH prolyl-isomerase assay raw dose-response value ([3]; Dose 0.181687 µM): 0.05774 and 0.04961 and 0.05822
CypH prolyl-isomerase assay raw dose-response value ([3]; Dose 0.545062 µM): 0.05324 and 0.05013 and 0.05095
CypH prolyl-isomerase assay raw dose-response value ([3]; Dose 1.63519 µM): 0.05541 and 0.05439 and 0.06013
CypH prolyl-isomerase assay raw dose-response value ([3]; Dose 4.90556 µM): 0.05126 and 0.04228 and 0.05669
CypH prolyl-isomerase assay raw dose-response value ([3]; Dose 14.7167 µM): 0.04371 and 0.04194 and 0.04598
CypH prolyl-isomerase assay raw dose-response value ([3]; Dose 44.15 µM): 0.03624 and 0.03187 and 0.03195
IC50 ([3]; prolyl-isomerase inhibition, 5 nM cyclophilin, read-out: IC50 CypH): ~30000 nM
IC50 ([3]; wild-type CypH, read-out: Wild-Type Cyclophilin Prolyl Isomerase Inhibition IC50 Values, CypH): 30000 nM
CypC prolyl-isomerase assay raw dose-response value ([4]; Dose 0.0201875 µM): 0.0364 and 0.03611 and 0.04566
CypC prolyl-isomerase assay raw dose-response value ([4]; Dose 0.0605624 µM): 0.03688 and 0.04021 and 0.04113
CypC prolyl-isomerase assay raw dose-response value ([4]; Dose 0.181687 µM): 0.04275 and 0.03781 and 0.03638
CypC prolyl-isomerase assay raw dose-response value ([4]; Dose 0.545062 µM): 0.03775 and 0.04123 and 0.03915
CypC prolyl-isomerase assay raw dose-response value ([4]; Dose 1.63519 µM): 0.0345 and 0.03482 and 0.03957
CypC prolyl-isomerase assay raw dose-response value ([4]; Dose 4.90556 µM): 0.0293 and 0.02714 and 0.0334
CypC prolyl-isomerase assay raw dose-response value ([4]; Dose 14.7167 µM): 0.02525 and 0.02065 and 0.02297
CypC prolyl-isomerase assay raw dose-response value ([4]; Dose 44.15 µM): 0.02045 and 0.01408 and 0.0166
IC50 ([4]; wild-type CypC, read-out: Wild-Type Cyclophilin Prolyl Isomerase Inhibition IC50 Values, CypC): 5000 nM
CypG prolyl-isomerase assay raw dose-response value ([5]; Dose 0.0201875 µM): 0.05557 and 0.07057 and 0.08284
CypG prolyl-isomerase assay raw dose-response value ([5]; Dose 0.0605624 µM): 0.06342 and 0.06664 and 0.0785
CypG prolyl-isomerase assay raw dose-response value ([5]; Dose 0.181687 µM): 0.06147 and 0.06545 and 0.06938
CypG prolyl-isomerase assay raw dose-response value ([5]; Dose 0.545062 µM): 0.06208 and 0.06061 and 0.06273
CypG prolyl-isomerase assay raw dose-response value ([5]; Dose 1.63519 µM): 0.04663 and 0.04276 and 0.05928
CypG prolyl-isomerase assay raw dose-response value ([5]; Dose 4.90556 µM): 0.04439 and 0.04343 and 0.05116
CypG prolyl-isomerase assay raw dose-response value ([5]; Dose 14.7167 µM): 0.03836 and 0.03799 and 0.04109
CypG prolyl-isomerase assay raw dose-response value ([5]; Dose 44.15 µM): 0.02708 and 0.02241 and 0.02205
IC50 ([5]; wild-type CypG, read-out: Wild-Type Cyclophilin Prolyl Isomerase Inhibition IC50 Values, CypG): 5000 nM
IC50 ([6]; CypA column within the mutant section (comparator for CypA E81S/K82R), read-out: Mutant Cyclophilin Prolyl Isomerase Inhibition IC50 Values, CypA): 80 nM
CypA prolyl-isomerase assay raw dose-response value ([6]; Dose 0.0201875 µM): 0.09097 and 0.1013 and 0.1158
CypA prolyl-isomerase assay raw dose-response value ([6]; Dose 0.0605624 µM): 0.07524 and 0.06823 and 0.07786
CypA prolyl-isomerase assay raw dose-response value ([6]; Dose 0.181687 µM): 0.04845 and 0.04593 and 0.054
CypA prolyl-isomerase assay raw dose-response value ([6]; Dose 0.545062 µM): 0.03092 and 0.02915 and 0.02773
CypA prolyl-isomerase assay raw dose-response value ([6]; Dose 1.63519 µM): 0.0188 and 0.01847 and 0.01826
CypA prolyl-isomerase assay raw dose-response value ([6]; Dose 4.90556 µM): 0.01632 and 0.01475 and 0.01432
CypA prolyl-isomerase assay raw dose-response value ([6]; Dose 14.7167 µM): 0.01473 and 0.01273 and 0.01279
CypA prolyl-isomerase assay raw dose-response value ([6]; Dose 44.15 µM): 0.01511 and 0.01244 and 0.01258
IC50 ([6]; prolyl-isomerase inhibition, 5 nM cyclophilin, read-out: IC50 CypA): 80 ± 10 nM
IC50 ([6]; prolyl-isomerase inhibition, read-out: IC50 CypA): 80 nM
IC50 ([6]; wild-type CypA, read-out: Wild-Type Cyclophilin Prolyl Isomerase Inhibition IC50 Values, CypA): 80 nM
IC50 ([7]; CypB (comparator for CypB E121S), read-out: Mutant Cyclophilin Prolyl Isomerase Inhibition IC50 Values, CypB): 22 nM
CypB prolyl-isomerase assay raw dose-response value ([7]; Dose 0.00457247 µM): 0.0629 and 0.06607 and 0.09046
CypB prolyl-isomerase assay raw dose-response value ([7]; Dose 0.0137174 µM): 0.04838 and 0.05763 and 0.06969
CypB prolyl-isomerase assay raw dose-response value ([7]; Dose 0.0411523 µM): 0.04508 and 0.04072 and 0.05012
CypB prolyl-isomerase assay raw dose-response value ([7]; Dose 0.123457 µM): 0.03305 and 0.03113 and 0.02819
CypB prolyl-isomerase assay raw dose-response value ([7]; Dose 0.37037 µM): 0.02119 and 0.01977 and 0.01945
CypB prolyl-isomerase assay raw dose-response value ([7]; Dose 1.11111 µM): 0.01691 and 0.01533 and 0.01651
CypB prolyl-isomerase assay raw dose-response value ([7]; Dose 3.33333 µM): 0.01532 and 0.01471 and 0.0137
CypB prolyl-isomerase assay raw dose-response value ([7]; Dose 10 µM): 0.01585 and 0.0132 and 0.01359
IC50 ([7]; prolyl-isomerase inhibition, 5 nM cyclophilin, read-out: IC50 CypB): 22 ± 4 nM
IC50 ([7]; prolyl-isomerase inhibition, read-out: IC50 CypB): 22 nM
IC50 ([7]; wild-type CypB, read-out: Wild-Type Cyclophilin Prolyl Isomerase Inhibition IC50 Values, CypB): 22 nM
NKTR prolyl-isomerase assay raw dose-response value ([8]; Dose 0.0201875 µM): 0.03059 and 0.03481 and 0.04051
NKTR prolyl-isomerase assay raw dose-response value ([8]; Dose 0.0605624 µM): 0.03143 and 0.03531 and 0.03914
NKTR prolyl-isomerase assay raw dose-response value ([8]; Dose 0.181687 µM): 0.02923 and 0.03481 and 0.03355
NKTR prolyl-isomerase assay raw dose-response value ([8]; Dose 0.545062 µM): 0.03762 and 0.03481 and 0.03206
NKTR prolyl-isomerase assay raw dose-response value ([8]; Dose 1.63519 µM): 0.03593 and 0.02854 and 0.03455
NKTR prolyl-isomerase assay raw dose-response value ([8]; Dose 4.90556 µM): 0.0369 and 0.03251 and 0.03563
NKTR prolyl-isomerase assay raw dose-response value ([8]; Dose 14.7167 µM): 0.03118 and 0.02949 and 0.02947
NKTR prolyl-isomerase assay raw dose-response value ([8]; Dose 44.15 µM): 0.02842 and 0.02625 and 0.02899
IC50 ([8]; wild-type NKTR, read-out: Wild-Type Cyclophilin Prolyl Isomerase Inhibition IC50 Values, NKTR): > 100000 nM
